Data reported in patent publication US8993559B2, “Use of ibogamine congeners for treating obesity” (Albany Medical College, priority 2008, dated 2015).
Entries after “also recorded” stand apart in the source; their conditions may differ.

Legend:
[1] = test system: Sprague-Dawley rats; experiment: Palatable liquid consumption, two-bottle paradigm (19-h sessions); assay type: in vivo, rat; conditions: for water consumption: water/water control
Method: Naïve female Sprague-Dawley rats (230-270 g; Taconic, Germantown, N.Y.) were housed individually and maintained on a normal 12 hr light cycle (light on/off at 7 a.m./7 p.m.) in the colony room. For all experiments, food (normal chow) and water were provided ad libitum. The experiments were conducted in accordance with the “Guide for the Care and Use of Laboratory Animals” (National Academy of Sciences, 1996).
On the first day of the experiment, the regular cage tops were replaced with custom-made cage tops containing metal holders for two 100-ml graduated glass bottles (Lab Products Inc., Seaford, Del.); the bottles were placed approximately 2″ apart. Different groups of rats were allowed 19-h (3.30 p.m.-10.30 a.m.) unlimited access to water and 5% sucrose, water and 0.1% saccharine, water and 0.6% saline, or water and water. The concentrations were chosen in accordance with previous reports using similar two-bottle drinking paradigms. See Dess, N. K., Physiol Behav., 69: 247-257 (2000) and Warwick, Z. S. et al., Physiol Behav, 60: 711-715 (1996), which are hereby incorporated by reference in their entirety. The animals were maintained on a normal chow during these sessions. The bottles with palatable fluids were removed at the end of the 19-h sessions, but water and chow remained always available. The consumption of palatable fluids and water during the sessions were recorded on a daily basis for four consecutive sessions: two initial baseline sessions, one treatment session and one port-treatment session. The baseline consumption levels of fluids were established during the initial two sessions; immediately before the third session, animals were injected with 18-MC (10, 20, or 40 mg/kg i.p.) or vehicle. To account for possible side preferences of rats, the bottle sides were switched daily; animals expressing strong side preferences during the baseline sessions were excluded from further analysis. Each animal was used for four weeks, receiving three different dosages of 18-MC and vehicle in random order.
The average levels of fluid consumption (ml) during the first two sessions (baseline), as well as consumption during the post-injection session and the recovery session, were compared by two-way ANOVA using treatment and session as main factors; this analysis was followed by one-way ANOVAs for each treatment group and post-hoc tests when appropriate.

[2] = Weight gain paradigm: water-drinking animals; assay type: in vivo, rat; conditions: 18-MC 20 mg/kg i.p. daily for two weeks
Method: Animals were allowed unlimited access to regular chow and water and were injected daily with 18-MC (20 mg/kg, i.p.) or vehicle for two weeks. Body weights were recorded immediately prior to injections and were also recorded for an additional week upon cessation of 18-MC treatment.
For the weight gain experiment, the data for all four treatment groups from days 1-21 were analyzed using two-way ANOVA, with treatment and time as main factors. Furthermore, the data for the first two weeks and the last week for water-vehicle, water-18-MC and sucrose 18-MC were analyzed separately using two-ANOVA, with treatment and time as main factors. Post-hoc comparison tests (Fisher LSD tests) were conducted when appropriate.

[3] = test system: rats; experiment: Local administration of 18-MC into brain sites: drug self-administration and responding for sucrose; assay type: in vivo, rat
Excerpt: FIG. 8 is a graph showing effects of local infusion of 18-MC into the basolateral amygdala on methamphetamine self-administration and responding for sucrose. Baseline methamphetamine infusions averaged (S.E.M.) 20.2±0.9 while baseline responding for sucrose averaged (S.E.M.) 27.1±2.1. Each data point represents the mean (S.E.M.) percent of baseline of 6-9 rats. (*=p<0.05-0.01).
Although the medial habenula and the interpeduncular nucleus are the brain regions having the highest concentrations of α3β4 nicotinic receptors, moderate densities of these receptors are localized in the ventral tegmental area, in the basolateral amygdala, and in the dorsolateral tegmentum (caudal pedunculopontine and laterodorsal tegmental nuclei). […] The basolateral amygdala has also been very much implicated in reward-related phenomena, and associated with both stimulants and sucrose. Accordingly, to further investigate brain sites mediating 18-MC's effects on drug self-administration, it was determined if local administration of 18-MC into the dorsolateral tegmentum or basolateral amygdala would alter drug self-administration, the other three sites having already been examined. As done previously, sucrose (15%) was used as a control, non-drug reinforcer. Previously, local administration of 18-MC had no effect on responding for sucrose regardless of whether it was infused into the medial habenula, interpeduncular nucleus, or ventral tegmental area. […] The neural substrates for 18-MC's effects on morphine and sucrose self-administration clearly appear to be different, although both may involve α3β4 nicotinic receptors.

[4] = target: α3β4 nicotinic receptors (Homo sapiens, UniProt P30926+P32297); conditions: cited from earlier work
α3β4 nicotinic receptors, sequence (P32297 32-505): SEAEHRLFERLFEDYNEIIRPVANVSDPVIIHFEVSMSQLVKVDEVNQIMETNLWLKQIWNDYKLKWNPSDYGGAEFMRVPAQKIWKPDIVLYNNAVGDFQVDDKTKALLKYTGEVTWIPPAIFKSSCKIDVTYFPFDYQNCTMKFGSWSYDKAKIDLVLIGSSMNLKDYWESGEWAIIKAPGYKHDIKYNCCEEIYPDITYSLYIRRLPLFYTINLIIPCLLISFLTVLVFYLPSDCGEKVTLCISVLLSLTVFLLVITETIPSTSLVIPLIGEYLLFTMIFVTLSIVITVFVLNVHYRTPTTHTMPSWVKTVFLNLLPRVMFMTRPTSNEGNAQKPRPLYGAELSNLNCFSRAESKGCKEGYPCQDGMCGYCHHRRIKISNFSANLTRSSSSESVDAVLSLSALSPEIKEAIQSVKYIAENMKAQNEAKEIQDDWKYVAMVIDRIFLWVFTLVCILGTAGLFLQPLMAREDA
α3β4 nicotinic receptors, sequence (P30926 22-498): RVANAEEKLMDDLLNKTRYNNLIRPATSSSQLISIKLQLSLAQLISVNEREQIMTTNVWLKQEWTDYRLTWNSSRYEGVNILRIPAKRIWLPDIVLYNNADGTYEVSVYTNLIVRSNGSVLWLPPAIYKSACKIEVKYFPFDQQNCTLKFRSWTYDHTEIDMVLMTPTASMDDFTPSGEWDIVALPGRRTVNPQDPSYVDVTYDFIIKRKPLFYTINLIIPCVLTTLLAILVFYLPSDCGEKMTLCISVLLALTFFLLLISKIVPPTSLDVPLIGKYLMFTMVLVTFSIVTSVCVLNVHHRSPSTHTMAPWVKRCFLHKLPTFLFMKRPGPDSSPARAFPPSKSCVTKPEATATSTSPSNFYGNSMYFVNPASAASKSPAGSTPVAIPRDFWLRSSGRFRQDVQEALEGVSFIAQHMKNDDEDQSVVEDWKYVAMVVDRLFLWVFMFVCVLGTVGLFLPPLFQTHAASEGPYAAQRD

[5] = test system: morphine-experienced rats; conditions: cited from earlier work
[6] = saccharin/water experiment, 10, 20 and 40 mg/kg i.p.
[7] = sucrose/water experiment, 10, 20 and 40 mg/kg i.p.

**Q.** Which “saccharin intake, recovery session” value ([1]; 0.1% saccharin/water, 10 mg/kg i.p.) does the source give for `COCC[C@H]1CC2CN3CCc4c([nH]c5ccccc45)[C@](C(=O)OC)(C2)[C@H]13` [18-MC, 18-methoxycoronaridine] here?
**A.** reduced intake

**Q.** And the “saccharin intake, post-injection session vs baseline” value ([1]; 0.1% saccharin/water, 10, 20 and 40 mg/kg i.p.)?
**A.** significantly less

**Q.** And the “saline consumption vs baseline” value ([1]; 0.6% saline/water, 10 mg/kg i.p.)?
**A.** remained unchanged

**Q.** And the “saline consumption vs baseline” value ([1]; 0.6% saline/water, 20 and 40 mg/kg i.p., 19 h following injection)?
**A.** reduced

**Q.** What about the “effect on saline consumption, recovery session” value ([1]; 0.6% saline/water, highest dose (40 mg/kg i.p.)) of the same compound?
**A.** also significant

**Q.** And the “sucrose intake, recovery session” value ([1]; 5% sucrose/water, 10, 20 and 40 mg/kg i.p.)?
**A.** returned to baseline

**Q.** And the “sucrose consumption, post-injection session vs baseline” value ([1]; 5% sucrose/water, 10, 20 and 40 mg/kg i.p., 19-h session)?
**A.** significantly reduced

**Q.** What about the “selectivity for reducing consumption of sucrose and saccharin relative to water” value ([1]; control water/water experiment vs two-bottle experiments) of the same compound?
**A.** at least four-fold

**Q.** And the “ceiling effect dose, consumption of sucrose and saccharin” value ([1]; dose range 10-40 mg/kg i.p.)?
**A.** 10 mg/kg

**Q.** And the “ceiling effect dose, saline consumption” value ([1]; dose range 10-40 mg/kg i.p.)?
**A.** 20 mg/kg

**Q.** What about the “effect on total fluid consumption, recovery session” value ([1]; saccharin/water experiment, 10 mg/kg i.p.) of the same compound?
**A.** remained significant

**Q.** What about the “total fluid consumption (FIG. 3C), 19 h after injection” value [1, 6] of the same compound?
**A.** reduced

**Q.** What about the “water consumption across sessions” value [1, 6] of the same compound?
**A.** not altered

**Q.** And the total fluid consumption ([1]; saline/water experiment, 10 mg/kg i.p.)?
**A.** remained unchanged

**Q.** And the “water consumption across sessions” value ([1]; saline/water experiment, 10, 20 and 40 mg/kg i.p.)?
**A.** not different across sessions

**Q.** And the total fluid consumption ([1]; saline/water experiment, 20 and 40 mg/kg i.p.)?
**A.** significantly reduced

**Q.** What about the “effect on total fluid consumption, recovery session” value ([1]; saline/water experiment, highest dose (40 mg/kg i.p.)) of the same compound?
**A.** also significant

**Q.** And the “total fluid consumption, post-injection session vs baseline” value [1, 7]?
**A.** reduced

**Q.** And the “water consumption across sessions” value [1, 7]?
**A.** remained stable

**Q.** What about the water consumption ([1]; 40 mg/kg i.p.) of the same compound?
**A.** significantly reduced

**Q.** And the water consumption ([1]; 10 and 20 mg/kg i.p.)?
**A.** remained unchanged

**Q.** And the “body weight of rats maintained on water and chow” value [2]?
**A.** no effect

**Q.** What about the responding for sucrose ([3]; infused into the medial habenula, interpeduncular nucleus, or ventral tegmental area (previous work)) of the same compound?
**A.** no effect

**Q.** And the methamphetamine self-administration ([3]; local administration into the basolateral amygdala)?
**A.** decreased

**Q.** What about the responding for sucrose ([3]; local administration into the basolateral amygdala, 15% sucrose) of the same compound?
**A.** decreased

**Q.** And the “morphine or methamphetamine self-administration” value ([3]; local administration into the dorsolateral tegmentum)?
**A.** no effect

**Q.** What about the responding for sucrose ([3]; local administration into the dorsolateral tegmentum, 15% sucrose) of the same compound?
**A.** decreased

**Q.** What about the “action at α3β4 nicotinic receptors” value [4] of the same compound?
**A.** selective antagonist; also recorded: noncompetitive antagonist

**Q.** And the “sensitized morphine-induced dopamine release in the nucleus accumbens” value [5]?
**A.** attenuate
